Laboratory results: publication PMC10399118, “Detection of endogenous NPY release determined by novel GRAB sensor in cultured cortical neurons” (Frontiers in Cellular Neuroscience, 2023)
pEC50: −log10 of the molar value. Where two headings read alike, the source gives them in different places.

How the values were obtained:
[1] = system: cultured cortical neurons; assay: sRGECO calcium sensor imaging of neuronal activity in cultured cortical neurons; assay type: cell-based, mouse
Protocol: Cortex was isolated from postnatal day 1–2 (P1-P2) mice (C57Bl/6, Charles River, Germany), and the meninges were removed in ice-cold dissection media containing 10% 10xHBSS (Gibco, Scotland, #14065056), 1% P/S, 1% sodium pyruvate (Gibco, Scotland, #11360070), 1% 1M HEPES (Gibco, Scotland), and 1.2% 45% glucose (Sigma-Aldrich, Germany). […]
Neurons were continuously perfused with artificial cerebrospinal fluid (aCSF) [120 mM NaCl, 5 mM KCl, 2 mM CaCl2, 2 mM MgCl2, 25 mM HEPES, and 30 mM D-glucose] at pH 7.4 and 32°C for all live imaging experiments. […] The collected images were recorded either at a frame rate of 1 frame/second when recording GRAB NPY1.0 alone or 4 frames/second when the sRGECO signal was also recorded. […]
(§1) Epifluorescence imaging was conducted under constant slow perfusion of aCSF buffers at a flow rate of approximately 1 ml/min. To induce neuronal activity, bicuculline (Bic; 50 μM; 14340, Sigma-Aldrich, Germany; dissolved in DMSO) and 4-aminopyridine (4-AP; 250 μM; 275875, Sigma-Aldrich, Germany; dissolved in Milli-Q water) was added together with aCSF, which was carefully measured after adding the compounds to confirm a pH of 7.4. […]

[2] = system: GRAB NPY1.0 sensor; assay: GRAB NPY1.0 sensor live-cell fluorescence imaging in cultured cortical neurons; assay type: cell-based, mouse
Protocol: Cortex was isolated from postnatal day 1–2 (P1-P2) mice (C57Bl/6, Charles River, Germany), and the meninges were removed in ice-cold dissection media containing 10% 10xHBSS (Gibco, Scotland, #14065056), 1% P/S, 1% sodium pyruvate (Gibco, Scotland, #11360070), 1% 1M HEPES (Gibco, Scotland), and 1.2% 45% glucose (Sigma-Aldrich, Germany). The cortices were cut into smaller pieces and incubated for 20–30 min at 37°C in papain solution containing 20 units/mL papain (Worthington Biochemical, #LS003126), 1mM L-cysteine (Sigma-Aldrich, Germany, #C7352), 1.9 mM CaCl2 (Sigma-Aldrich, Germany), 0.5 mM Kynurenic acid (Sigma-Aldrich, Germany, #K3375), pH adjusted to 7.4 with HCl and oxygenated with 95% O2 and 5% CO2. After incubation, the tissue was washed 3 times with Neurobasal A media and carefully triturated 3–5 times with a glass Pasteur pipette with a fire-polished tip. The dissociated cortical neurons were plated at a density of 100,000 or 150,000 cells/well onto the glia monolayered 18- or 25-mm coverslips, respectively, and grown in Neurobasal A media containing 1% Glutamax, 2% B-27, and 0.1% P/S. The day after seeding the neurons, half of the media was changed to remove any cell debris. Every 3–4 days, 1/4 of the media in the wells was removed and replaced with double of the removed volume of fresh neuronal media. The use of experimental animals was conducted in concordance with the Danish Research Ethical Committee for Experimental Animals (ethical permit #2017-15-0202-00092; PI: Andreas Toft Sørensen).
The following AAV vectors were used for experiments: GRAB NPY1.0 sensor (AAV2/9-hSyn-GRAB_NPY1.0; 6E+12−4.7E+13 vg/ml, 1 μL/well); sRGECO calcium sensor (AAV2/8-Ef1a-sRGECO-WPRE; Addgene plasmid #137125; RRID:Addgene_137125; 2.2E+13 vg/ml, 0.2 μL/well) ([Fenno et al., 2020]); NPY1-36 vector (AAV2/8-hSyn-PreproNPY-WPREpA; full-length peptide incl. CPON; produced in-house; 7.8E+12 vg/ml, 0.5 μL/well) ([Soud et al., 2019]). Primary cultures were transduced after 2–3 DIV and given […] to assure robust expression before being used for live-cell imaging.
Neurons were continuously perfused with artificial cerebrospinal fluid (aCSF) [120 mM NaCl, 5 mM KCl, 2 mM CaCl2, 2 mM MgCl2, 25 mM HEPES, and 30 mM D-glucose] at pH 7.4 and 32°C for all live imaging experiments. An RC-21BDW microscope flow chamber (Warner Instruments, Hamden, CT, USA) was used to hold the coverslips and to apply a flow of different aCSF and drug buffers during imaging at 20× with a Nikon Eclipse Ti microscope connected to two EM-CCD cameras (iXon3 897, Andor). A NIS-Elements software (Nikon, Tokyo, Japan) was used for recordings. GRAB NPY1.0 and sRGECO biosensors were excited with 488 nm and 561 nm laser lines (LED sapphire laser; Coherent Inc., Santa Clara, CA, USA), respectively. For the 488 nm LED laser excitation, a 491 nm mirror, and a 475/35 nm band-pass filter were used, while a 525/50 nm band-pass filter (AHF Analysentechnik, Tübingen-Pfrondorf, Germany) was used to detect emitted light. For the 561 nm LED laser excitation, a 561 nm mirror, and a 560/40 nm band-pass filter were used, while a 630/75 nm band-pass filter (AHF Analysentechnik, Tübingen-Pfrondorf, Germany) was used to detect emitted light. The collected images were recorded either at a frame rate of 1 frame/second when recording GRAB NPY1.0 alone or 4 frames/second when the sRGECO signal was also recorded. All recordings were performed using epifluorescence microscopy.
as §1

[3] = system: GRAB NPY1.0 sensor; settings: ref Wang et al., 2022, read-out: EC50 of GRAB NPY1.0 sensor response, cited from earlier work
From the text: Here, we report on the usage of the GRAB NPY1.0 sensor in mouse-cultured cortical neurons and address the question: can the sensor detect the release of endogenous NPY? This sensor, recently developed in the Yulong Li laboratory, Peking University of China, is one of six neuropeptide-based GRAB sensors engineered for detecting either SST, CCK, CRF, NTS, VIP or NPY ([Wang et al., 2022]). While it was shown that the SST, CCK, and CRF sensors can detect endogenously released neuropeptides ([Wang et al., 2022]), similar information is lacking on the NPY1.0 sensor. In our setup, we tested the NPY1. ...

[4] = transgene NPY cultures, BIBO3304 applied during Bic + 4-AP

Compound | effect on high-frequency activity induced by Bic + 4-AP (sRGECO signal) ([1]; BIBO3304 applied to the cultures) | change of GRAB NPY1.0 fluorescence signal at baseline conditions ([2]; BIBO3304 1 μM applied at baseline, n = 90 neurons from 2 coverslips) | change of GRAB NPY1.0 fluorescence when added during Bic + 4-AP ([2]; NPY transgene (AAV-NPY) cortical cultures, BIBO3304 1 μM added to Bic 50 μM + 4-AP 250 μM, n = 128 neurons from 6 coverslips) | effect on GRAB NPY1.0 signal of cluster A during Bic + 4-AP [2, 4] | effect on GRAB NPY1.0 signal of clusters B and C during Bic + 4-AP [2, 4] | pEC50 ([3]; HEK293T cells stably expressing the NPY1.0 sensor) | pEC50 ([3]; rat cortical neurons transduced by a similar AAV9 vector with human synapsin promoter) | change of sRGECO fluorescent signal (neuronal activity) during continuous Bic + 4-AP perfusion ([1]; exogenous NPY added to primary cultures during Bic + 4-AP) | neurons expressing the GRAB NPY1.0 sensor that remained unresponsive ([2]; 1 μM exogenous NPY, naive mouse cortical cultures, 174 neurons from 9 coverslips) | pEC50 ([2]; mouse cultured cortical neurons expressing GRAB NPY1.0, exogenous NPY1-36 0.3, 1, 30, 1000 nM in aCSF with 1% BSA, pH 7.4, 32°C, mean ΔF/F0, three-parameter fit, n = 130 neurons from 5 coverslips, read-out: EC50 of GRAB NPY1.0 fluorescence response (normalized dose-response curve))
NC(=O)NCc1ccc(CNC(=O)[C@@H](CCCN=C(N)N)NC(=O)C(c2ccccc2)c2ccccc2)cc1 [BIBO3304] | not per se affected | remained unchanged | significant drop in fluorescence | not affected | significantly reduced |  |  |  |  | 
Neuropeptide Y [NPY] |  |  |  |  |  | 7.40 | 9.15 | marked decrease | 8 out of 174 | 7.42
